The assay has as its target T1, BjPutA (proline utilization A) (Bradyrhizobium diazoefficiens, UniProt Q89E26, D779W).
T1 sequence (Q89E26 1-999 D779W): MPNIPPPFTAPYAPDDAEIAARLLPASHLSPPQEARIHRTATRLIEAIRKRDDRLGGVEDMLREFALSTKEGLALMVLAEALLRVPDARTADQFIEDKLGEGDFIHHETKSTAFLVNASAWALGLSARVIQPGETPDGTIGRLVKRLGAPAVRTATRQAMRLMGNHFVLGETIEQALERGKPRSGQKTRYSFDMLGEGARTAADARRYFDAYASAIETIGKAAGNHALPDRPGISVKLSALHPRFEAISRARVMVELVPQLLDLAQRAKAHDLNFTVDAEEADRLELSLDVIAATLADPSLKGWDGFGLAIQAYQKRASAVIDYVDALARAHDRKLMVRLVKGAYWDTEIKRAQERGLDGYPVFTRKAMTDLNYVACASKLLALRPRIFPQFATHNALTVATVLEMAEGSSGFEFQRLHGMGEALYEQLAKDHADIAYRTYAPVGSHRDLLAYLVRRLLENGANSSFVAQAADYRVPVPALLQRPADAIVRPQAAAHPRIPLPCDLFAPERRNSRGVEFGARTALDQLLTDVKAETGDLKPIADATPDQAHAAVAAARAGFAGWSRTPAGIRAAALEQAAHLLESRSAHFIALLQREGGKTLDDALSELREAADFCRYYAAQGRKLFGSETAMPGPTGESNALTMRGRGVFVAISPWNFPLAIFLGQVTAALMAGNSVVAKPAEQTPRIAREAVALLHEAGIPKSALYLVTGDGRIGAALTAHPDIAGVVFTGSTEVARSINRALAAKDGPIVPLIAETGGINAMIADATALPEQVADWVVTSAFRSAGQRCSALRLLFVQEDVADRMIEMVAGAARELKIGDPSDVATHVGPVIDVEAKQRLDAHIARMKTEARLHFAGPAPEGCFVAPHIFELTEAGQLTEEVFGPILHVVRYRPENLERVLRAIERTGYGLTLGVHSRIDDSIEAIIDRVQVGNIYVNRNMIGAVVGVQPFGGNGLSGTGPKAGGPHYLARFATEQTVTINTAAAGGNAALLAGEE
In words: intrinsic tryptophan fluorescence quenching. Type of assay: binding.

As to `NC(=O)c1ccc[n+]([C@@H]2O[C@H](COP(=O)(O)OP(=O)(O)OC[C@H]3O[C@@H](n4cnc5c(N)ncnc54)[C@H](O)[C@@H]3O)[C@@H](O)[C@H]2O)c1` [NAD^+], binding was characterised by a dissociation constant (Kd) of 0.78 ± 0.05 µM.

Values taken from PMC4131897 (Biochemistry, 2014).
